Experiments:
[1] = Pharmacokinetic profile in mice; format: in vivo; details: mouse; fasted male Hilltop mice, 10 mg/kg oral gavage, plasma, mean of three mice
Method: Pharmacokinetic Profile in Mice
In this series of studies, the pharmacokinetic profile characteristics of compounds of the present invention were evaluated. The plasma concentration levels of the compounds were monitored in the blood stream (i.e., plasma) after oral gavage using Cmax, and area under the curve (AUC).
8 week old male Hilltop mice were fasted overnight. Animals were randomized into groups (n=9) by body weight. Mice were dosed with 10 mg/kg compound (in 20% PEG400/80% 0.5% carboxymethylcellulose (medium viscosity)+0.25% Tween-80) at a volume of 10 mL/kg through oral gavage. Blood was collected via orbital bleeding at 0, 0.25, 0.5, 1, 2, and 4 h post-dose, with no one mouse having more than 3 blood draws. Blood was collected in EDTA coated tubes. Samples were stored at −20° C. until analysis.
Quantitation of compound levels in plasma was accomplished by LC-MS/MS analysis. Standard curve and quality control samples were prepared in male CD-1 mouse plasma containing EDTA K^2+ as an anticoagulant at final concentrations ranging from 500 to 0.1 ng/mL. The plasma samples, calibration curve standards, and quality control samples were prepared in an identical method in a 96-well deep plate (1 mL) with a quenching solution (1:1 mixed acetonitrile:methanol containing the internal standard Reserpine @ 400 ng/mL). Low volume samples were supplemented with CD-1 mouse plasma. The plate was mixed on multi-tube votex for 1 min and centrifuged at 4000 rpm for 30 min at 4° C. (Sorvall® Super T21) before LC-MS/MS analysis. LC conditions were developed and optimized based on each compound as needed. The outlet of the column was coupled to AB Sciex 4000 QTrap Mass Spectrometer (AB Sciex, Brugg Switzerland). Detection was carried out using multiple reaction monitoring mode with positive-ion detection focusing. The pharmacokinetic parameters were derived from the plasma-time data and calculated using the standard non-compartmental method with WinNonlin (Pharsight, Mountain View, Calif.) or PK Solver (Comp. Meth. Prog. Biomed. (2010), 99, 306-314).
Values reported are the mean plasma concentration of three mice.

Mouse STC-1 cells = test: STC-1 GLP-1 assay; format: cell-based; details: GLP-1 secretion, 2 h, coded A-C, read-out: Mouse STC-1 HTRF GLP-1 Activity (EC50)
Method: We evaluated Compounds of the present invention for their ability to induce GLP-1 production in mouse intestinal neuroendocrine tumor cells. Mouse STC-1 cells were cultured and maintained in high glucose DMEM (Sigma #5796) supplemented with 15% horse serum, 5% Fetal Bovine Serum (FBS), 1% penicillin/streptomycin, and 2 mM L-alanine L-glutamine (GlutaMax). Two days prior to analysis of GLP-1 secretion cells were harvested using Accutase (Sigma), spun down then resuspended in high glucose DMEM media containing 2 mM L-alanine L-glutamine (GlutaMax), 10% charcoal-dextran stripped FBS, and 50 μg/mL Gentamicin, at a density of 100,000 cells/mL. 100 μL of cell suspension was added to each well of a 96-well Poly-D-Lysine coated culture plate (Sigma; cat #2382493) and was incubated at 37° C. with 5% CO2.
Compounds were initially diluted in 100% DMSO (12-point serial dilution by half logs) in a 96-well plate and then were further diluted 1:500 in Hanks' Balanced Salt Solution (HBSS) containing protease inhibitor cocktail, DPP-IV inhibitor, and 0.1% fatty acid free bovine serum albumin. On the day of the experiment cells were washed once with HBSS. After wash, 100 μL of test compound was added to each well. The plate was incubated at 37° C. with 5% CO2 for 2 h. Supernatants were collected and GLP-1 secretion was measured using the Cisbio™ Active GLP-1 HTRF Assay Kit (Cisbio). Briefly, Anti-GLP-1-d2 conjugate and Anti-GLP-1 Terbium Cryptate conjugate stock solutions were prepared as per kit instructions. The two solutions were pre-mixed and 10 μL were transferred to a 384-well low volume plate (Greiner; cat #784075). 10 μL of collected supernatants were added to wells already containing the conjugate solution. The plate was covered and incubated at room temperature overnight. The plate was read on an Envision™ plate reader (Perkin Elmer).
In Table 34, EC50 values obtained from the STC-1 GLP-1 production assay for compounds of the present invention are summarized.

[2] = system: GLP-1 levels in the blood of male C57BL/6NTac mice; test: In vivo mouse GLP-1 study, single oral dose; details: 10 mg/kg oral, 4 h post-dose, sitagliptin 3 mg/kg pre-dose
Method: In Vivo Mouse GLP-1 Study
12-14 week old male C57BL/6NTac (Taconic) mice were divided into experimental groups (n=6) by randomizing mice based on pre-fasting body weight and then were fasted overnight. On experiment day, all mice were dosed with 3 mg/kg sitagliptin via oral gavage exactly 1 hour before oral gavage dosing of vehicle (0.5% carboxymethylcellulose (medium viscosity)+0.25% Tween-80) or 10 mg/kg compound in vehicle. Four (4) hours following the administration of compound, blood was collected via cardiac puncture. For the GLP-1 assay, 200-250 μL of blood was placed in an EDTA K^2+ tube containing 5 μL of 40 mg/mL aprotinin (Sigma A1153) and 1 μL of 10 mM sitagliptin (Sigma S8576) and plasma was separated by centrifugation. Plasma samples were stored at −20° C. until analysis. The active form of GLP-1 [GLP-1 (7-36) amide] was analyzed using Meso Scale Discovery System according to the manufacturer's directions (item number K150HYC). Values of p<0.05 are considered statistically significant.
The active GLP-1 assay results from the mice in vivo study are shown in Table 36 and FIG. 1, expressed as fold change over vehicle.

| Compound | Cmax [1] [ng/mL] | EC50 (Mouse STC-1 cells) [nM] | Fold Increase (active GLP-1, fold change over vehicle) [2] |
| --- | --- | --- | --- |
| CCc1cnccc1-c1cccc(C(C)(C)N(CCCC(=O)NCCS(=O)(=O)O)S(=O)(=O)c2ccccc2C(F)(F)F)c1 [Compound 20, 2-(4-(N-(2-(3-(3-ethylpyridin-4-yl)phenyl)propan-2-yl)-2-(trifluoromethyl)-phenylsulfonamido)butanamido)ethanesulfonic acid] | 5 | < 100 | 1.0 |
| Cc1cnccc1-c1cccc(C(C)(C)N(CCCC(=O)NCCS(=O)(=O)O)S(=O)(=O)c2ccccc2C(F)(F)F)c1 [Compound 20AA, 2-(4-(N-(2-(3-(3-methylpyridin-4-yl)phenyl)propan-2-yl)-2-(trifluoromethyl)phenylsulfonamido)butanamido)ethanesulfonic acid] | 7.2 | 100 to 999 | 3.3 |
| CCc1cnccc1-c1cccc(C(C)(C)N(CCCC(=O)NCCS(=O)(=O)O)S(=O)(=O)c2cccc(Cl)c2C)c1 [Compound 20AC, 2-(4-(3-chloro-N-(2-(3-(3-ethylpyridin-4-yl)phenyl)propan-2-yl)-2-methylphenylsulfonamido)butanamido)ethanesulfonic acid] | 7.8 | 100 to 999 | 1.2 |
| Cc1cnccc1-c1cccc(C(C)(C)N(CCCC(=O)NCCCS(=O)(=O)O)S(=O)(=O)c2cccc(Cl)c2C)c1 [Compound 20AD, 3-(4-(3-chloro-2-methyl-N-(2-(3-(3-methylpyridin-4-yl)phenyl)propan-2-yl)phenylsulfonamido)butanamido)propane-1-sulfonic acid] | 2.5 |  | 1.9 |
| Cc1cnccc1-c1cccc(C(C)(C)N(CCCC(=O)NC[C@@H](O)[C@H](O)[C@@H](O)[C@@H](O)CO)S(=O)(=O)c2cccc(Cl)c2C)c1 [Compound 20AF, 4-(3-chloro-2-methyl-N-(2-(3-(3-methylpyridin-4-yl)phenyl)propan-2-yl)phenylsulfonamido)-N-((2R,3S,4S,5S)-2,3,4,5,6-pentahydroxyhexyl)butanamide] | 5.2 | 100 to 999 | 0.8 |
| CCc1cnccc1-c1cccc([C@H](C)N(CCCC(=O)NCCCS(=O)(=O)O)S(=O)(=O)c2cccc(Cl)c2C)c1 [Compound 20AM, (S)-3-(4-(3-chloro-N-(1-(3-(3-ethylpyridin-4-yl)phenyl)ethyl)-2-methylphenylsulfonamido)butanamido)propane-1-sulfonic acid] | 0.9 | 100 to 999 | 2.3 |
| Cc1cnccc1-c1cccc(C(C)(C)N(CCCC(=O)NCCS(=O)(=O)NCC(=O)O)S(=O)(=O)c2cccc(Cl)c2C)c1 [Compound 20AW, (4-(3-chloro-2-methyl-N-(2-(3-(3-methylpyridin-4-yl)phenyl)propan-2-yl)phenylsulfonamido)-N-butanamidoethylsulfonamido)acetic acid] | 2.8 |  | 1.1 |
| Cc1cnccc1-c1cccc(C(C)(C)N(CCCC(=O)NCC(=O)O)S(=O)(=O)c2cccc(Cl)c2C)c1 [Compound 21AB, 2-(4-(3-chloro-2-methyl-N-(2-(3-(3-methylpyridin-4-yl)phenyl)propan-2-yl)phenylsulfonamido)butanamido)acetic acid] | 19.4 |  | 3.0 |
| Cc1cnccc1-c1cccc([C@H](C)N(CCCC(=O)NCCNS(=O)(=O)NCC(=O)O)S(=O)(=O)c2cccc(Cl)c2C)c1 [Compound 38] | 3.6 | 100 to 999 |  |
| CCc1cnccc1-c1cccc(C2CN(C(=O)CS(=O)(=O)O)CCN2S(=O)(=O)c2cccc(Cl)c2C)c1 (stereo not shown) [Compound 49, 2-(4-((3-Chloro-2-methylphenyl)sulfonyl)-3-(3-(3-ethylpyridin-4-yl)phenyl)piperazin-1-yl)-2-oxoethanesulfonic acid] | 2.1 | 100 to 999 |  |

Source: US11236055B2 (Venenum Biodesign, LLC, priority 2016, dated 2022)
